Like-named read-outs stand apart in the source and are kept apart here.
Key:
[1] = target: T1, 17β-hydroxysteroid dehydrogenase type 1 (17β-HSD1) (Homo sapiens, UniProt P14061); details: earlier paper of the authors; read-out: 17β-HSD1 IC50 ± SD; cited from earlier work
T1 sequence (P14061 1-328): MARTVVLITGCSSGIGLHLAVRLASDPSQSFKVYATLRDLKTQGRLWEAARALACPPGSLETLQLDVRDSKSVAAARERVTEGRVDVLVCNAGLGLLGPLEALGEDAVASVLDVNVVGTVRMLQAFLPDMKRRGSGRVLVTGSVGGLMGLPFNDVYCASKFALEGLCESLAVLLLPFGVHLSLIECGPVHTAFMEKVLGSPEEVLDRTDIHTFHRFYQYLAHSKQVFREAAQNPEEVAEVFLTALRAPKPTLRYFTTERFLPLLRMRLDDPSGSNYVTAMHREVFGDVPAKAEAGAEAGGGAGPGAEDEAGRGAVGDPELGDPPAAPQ

steroid sulfatase (STS) [2] = target: T2, steroid sulfatase (STS) (Homo sapiens, UniProt P08842); assay: STS inhibition, in vitro radiosubstrate incubation (release of E1 from E1S), human placental microsomes; Dixon kinetic analysis; assay type: biochemical; details: for IC50: E1S substrate 1.0 µM, read-out: STS IC50 ± SD; for STS inhibition mechanism: Dixon's plots; for Ki: from Dixon plot
T2 construct: from tissue; host or cells: human term placenta, microsomal fraction
T2 sequence (P08842 22-583): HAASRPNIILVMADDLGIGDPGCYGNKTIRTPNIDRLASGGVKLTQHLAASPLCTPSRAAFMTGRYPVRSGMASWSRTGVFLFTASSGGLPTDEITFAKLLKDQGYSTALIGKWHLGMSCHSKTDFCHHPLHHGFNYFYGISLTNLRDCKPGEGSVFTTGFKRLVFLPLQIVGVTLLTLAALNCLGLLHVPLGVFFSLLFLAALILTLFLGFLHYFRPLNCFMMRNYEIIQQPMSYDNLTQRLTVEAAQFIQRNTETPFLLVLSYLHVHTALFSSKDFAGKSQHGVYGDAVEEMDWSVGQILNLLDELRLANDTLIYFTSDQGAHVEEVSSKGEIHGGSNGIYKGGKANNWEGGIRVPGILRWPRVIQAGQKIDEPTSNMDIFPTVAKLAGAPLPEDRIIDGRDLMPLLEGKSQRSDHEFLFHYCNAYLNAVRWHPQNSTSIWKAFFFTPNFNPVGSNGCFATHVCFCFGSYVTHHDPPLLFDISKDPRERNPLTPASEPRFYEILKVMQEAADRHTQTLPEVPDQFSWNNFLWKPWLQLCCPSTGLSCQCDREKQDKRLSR
Experimental: (§1) Enzyme inhibition studies were performed by in vitro radiosubstrate incubations using human term placenta cytosol and microsomas as enzyme sources. […] Relative conversions compared to non-inhibited controls (100%) were measured in the presence of 10 µM concentration of the test compound. […] Mechanistic and kinetic investigations were performed and inhibitory constants (Ki) were determined for selected compounds.
Kinetic analyses of selected compounds 7a and 16c were performed by measurement of enzyme activities using different fixed substrate concentrations and varied inhibitor concentrations.
(§2) Enzymatic incubations were carried out in the HEPES buffer medium at a final volume of 200
(§3) µl. The substrate was added to the incubate in 20 µl of a 25 v/v% propylene glycol in HEPES buffer solution, whereas test compounds were applied in 10 µl of dimethyl sulfoxide solution.
(§4) Incubations were performed at 37 °C and terminated by cooling and the addition of organic solvents of the subsequent extraction procedure. Control samples with no inhibitor and blank samples were incubated simultaneously. […]
The incubation time was 2.5 min. […]
(§5) In the general procedure, incubations were performed as described. Concentrations of the substrates were 1.0 µM, and the test compounds were applied at 10 µM final concentration in the incubate. Relative conversions compared to non-inhibited controls (100%) were determined. The assays were performed in triplicate, and the mean value and the standard deviation (SD) were calculated. […]
(§6) these cases, conversions were measured at 10–15 different concentrations in the appropriate interval between 0.001–50 µM. IC50 results were calculated by using unweighted iterative least squares logistic curve fitting by means of the “absolute IC50 calculation“ function of the GraphPad Prism 4.0 software (GraphPad Software, Inc., San Diego, CA, USA).
(§7) Kinetic analyses were performed via measurement of the enzymatic transformation using different fixed substrate concentrations and varied inhibitor concentrations. The Dixon’s linear transformation (1/velocity vs. inhibitor concentration) was applied for evaluation and the inhibition constant (Ki) was determined from abscissa of intersection of the lines of different substrate concentrations. Mechanism of binding was identified according to the Dixon’s graphs and the secondary plot of slopes of the Dixon’s lines vs. 1/substrate […]
The inhibitor compounds were preincubated with the appropriate placenta fraction in a volume of 4.0 µl at 37 °C for various time periods (2.5-40 min). Following this procedure, […]

[3] = target: T1, 17β-hydroxysteroid dehydrogenase type 1 (17β-HSD1); assay: 17β-HSD1 inhibition, in vitro radiosubstrate incubation (E1 to E2), human placental cytosol; Dixon kinetic analysis; assay type: biochemical; details: for 17β-HSD1 inhibition mechanism: Dixon's plot; for 17β-HSD1 inhibition mechanism / Ki: cofactor excess; for IC50: E1 substrate 1.0 µM, NADPH excess, read-out: 17β-HSD1 IC50 ± SD; for Ki: from Dixon plot
Experimental: as §1
Inhibitors that bind to the steroid site of 17β-HSD1 can bind to both the free enzyme and the binary enzyme–cofactor complex by random kinetic mechanism.
as §2, §3, §4
The incubation time was 2.5 min. The product 17β-estradiol (E2, 5) was extracted with ethyl acetate and isolated by a TLC method (details are published in our earlier reference).
as §5, §6, §7
(§8) The inhibitor compounds were preincubated with the appropriate placenta fraction in a volume of 4.0 µl at 37 °C for various time periods (2.5-40 min). Following this procedure, samples were diluted with the incubation medium to 50-fold. Enzyme activity measurements

human aromatase = target: T3, human aromatase (Homo sapiens, UniProt P11511); assay: Aromatase inhibition, in vitro radiosubstrate incubation (testosterone to E2 conversion), human placental microsomes; assay type: biochemical; details: for remaining activity at 10 µM: 10 µM test compound, non-inhibited control 100%, mean ± SD, n = 3, read-out: Arom Rel.conv. ± SD
T3 construct: from tissue; host or cells: human term placenta, microsomal fraction
T3 sequence (P11511 1-503): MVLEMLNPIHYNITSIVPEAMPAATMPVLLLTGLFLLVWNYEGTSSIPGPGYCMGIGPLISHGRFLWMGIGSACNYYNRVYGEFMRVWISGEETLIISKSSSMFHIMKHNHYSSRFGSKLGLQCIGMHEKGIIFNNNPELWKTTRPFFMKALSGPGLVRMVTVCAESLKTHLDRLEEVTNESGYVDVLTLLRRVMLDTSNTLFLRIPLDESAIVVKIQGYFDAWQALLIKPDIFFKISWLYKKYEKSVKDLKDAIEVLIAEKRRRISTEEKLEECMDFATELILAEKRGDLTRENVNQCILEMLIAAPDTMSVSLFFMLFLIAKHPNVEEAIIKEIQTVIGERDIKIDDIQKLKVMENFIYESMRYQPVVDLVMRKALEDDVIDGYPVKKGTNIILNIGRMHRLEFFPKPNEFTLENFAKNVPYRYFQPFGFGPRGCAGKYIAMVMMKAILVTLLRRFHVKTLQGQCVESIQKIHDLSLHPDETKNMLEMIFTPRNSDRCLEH
Experimental: as §1, §2, §3
as §4, with “simultaneously. The radioactivity of the products formed was measured by means of liquid scintillation counting (LSC) and taken as indicator of the” for “simultaneously.”
In the aromatase assays the microsoma suspension was incubated with appropriate concentration of unlabelled testosterone (2) substrate spiked with [1,2,6,7-3H]testosterone tracer, and in the presence of 0.1 mM NADPH cofactor excess. (In this case, solution of the substrate was prepared with acetonitrile instead of propylene glycol.) Incubation time was 40 min. The incubation mixture was extracted with toluene, then the toluene phase was drained and washed with HEPES buffer. Aromatase products containing phenolic hydroxy group were extracted with 1.2 M sodium hydroxide solution from the toluene extract and the alkaline phase was measured in the LSC. […]
was extracted with toluene. […]
as §5, §6
as §7, with “the” for “the Dixon’s graphs and the secondary plot of slopes of the Dixon’s lines vs. 1/substrate”

17β-HSD1 = target: T4, 17β-HSD1 (Homo sapiens, UniProt P14061); assay: 17β-HSD1 inhibition reversibility test (preincubation with placental cytosol, 50-fold dilution); assay type: biochemical; details: preincubation 10 μM, 2.5 and 20 min
T4 construct: from tissue; host or cells: human term placenta, cytosolic fraction
T4 sequence (P14061 1-328): T1 sequence (P14061 1-328)
Experimental: as §6, §7
as §8, with “measurements were started immediately for the 17β-HSD1 and after 20 min secondary incubation time to allow dissociation in the case of STS. […]” for “measurements”

aromatase enzyme = target: aromatase enzyme; parameters: method as in PMID 16039845; details: cited from earlier work
steroid sulfatase (STS) [4] = target: T2, steroid sulfatase (STS); assay: STS inhibition reversibility test (preincubation with placental microsomes, 50-fold dilution); assay type: biochemical; details: preincubation 7a 1.5 μM, 16c 10 μM; for STS binding reversibility: 50-fold dilution, 20 min secondary incubation

SMILES: C[C@@]12CC[C@@H]3c4ccc(O)c(I)c4CC[C@H]3[C@@H]1CCC2=O [11a]
- IC50 [1]: 1 ± 0.3 µM
- IC50 (steroid sulfatase (STS) [2]): 6 ± 1.6 µM
- 17β-HSD1 inhibition mechanism [3]: competitive
- IC50 [3]: 0.38 µM
- Ki [3]: 2.2 µM
- remaining activity at 10 µM (human aromatase): 90 ± 7%
- 17β-HSD1 binding reversibility (17β-HSD1): reversible

SMILES: C[C@@]12CC[C@@H]3c4cc(I)c(O)c(I)c4CC[C@H]3[C@@H]1CCC2=O [12a]
- IC50 [1]: 0.38 ± 0.08 µM
- IC50 (steroid sulfatase (STS) [2]): 2.4 ± 0.5 µM
- 17β-HSD1 inhibition mechanism [3]: competitive
- IC50 [3]: 1 µM
- Ki [3]: 0.94 µM
- remaining activity at 10 µM (human aromatase): 91 ± 1%
- 17β-HSD1 binding reversibility (17β-HSD1): reversible

SMILES: C[C@]12CC[C@@H]3c4cc(Cl)c(O)cc4CC[C@H]3[C@@H]1CCC2=O [6c, 2-Chloroestrone]
- IC50 (steroid sulfatase (STS) [2]): 2.4 ± 0.4 µM
- IC50 [3]: 0.18 ± 0.02 µM
- IC50 (human aromatase): 6 ± 1.2 µM
- Ki (aromatase enzyme): 0.13 µM
- enhancement in affinity to aromatase compared to E1 (aromatase enzyme): ~20 fold

SMILES: C[C@]12CC[C@@H]3c4cc(Br)c(O)cc4CC[C@H]3[C@@H]1CCC2=O [6b, 2-Bromoestrone]
- IC50 (steroid sulfatase (STS) [2]): 2 ± 0.4 µM
- IC50 [3]: 0.095 ± 0.031 µM
- IC50 (human aromatase): 8.7 ± 2.8 µM
- IC50 (aromatase enzyme): 2.4 µM

SMILES: C[C@]12CC[C@@H]3c4ccc(O)c(I)c4CC[C@H]3[C@@H]1CCC2=O [7a, 4-iodoestrone]
- STS inhibition mechanism (steroid sulfatase (STS) [2]): competitive
- IC50 (steroid sulfatase (STS) [2]): 0.23 ± 0.09 µM
- Ki (steroid sulfatase (STS) [2]): 0.36 µM
- STS affinity higher compared to the E1S substrate (steroid sulfatase (STS) [2]; from IC50 values): 22 fold
- STS affinity increased compared to E1 (steroid sulfatase (STS) [2]; from IC50 values): 100 fold
- time in which irreversible binding to STS is nearly completed (steroid sulfatase (STS) [4]): ≤ 2.5 min
- STS binding reversibility (steroid sulfatase (STS) [4]): irreversible
- IC50 [3]: 0.36 ± 0.25 µM
- remaining activity at 10 µM (human aromatase): 88 ± 2%

SMILES: C[C@]12CCC[C@H]1[C@@H]1CCc3c(cc(Cl)c(O)c3Cl)[C@H]1CC2 [16c, 2,4-bis-chloro-17-deoxy-13α-estrone]
- STS inhibition mechanism (steroid sulfatase (STS) [2]): competitive
- IC50 (steroid sulfatase (STS) [2]): 1.3 ± 0.4 µM
- Ki (steroid sulfatase (STS) [2]): 1.9 µM
- time in which irreversible binding to STS is nearly completed (steroid sulfatase (STS) [4]): ≤ 2.5 min
- STS binding reversibility (steroid sulfatase (STS) [4]): irreversible
- 17β-HSD1 Rel.conv. ± SD ([3]; 10 µM test compound, non-inhibited control 100%, mean ± SD, n = 3): 53 ± 2%
- remaining activity at 10 µM (human aromatase): 82 ± 12%
